Test results reported in patent publication US20260144815A1, “BLOOD COAGULATION TIME SHORTENING AGENT FOR BLOOD SPECIMEN DEFICIENT IN COAGULATION FACTOR XII” (SEKISUI MEDICAL CO., LTD., priority 2022, published 2026).

Tested on: FXII-deficient specimens
Test: Test 2: APTT coagulation time measurement of FXII-deficient specimens, zinc chloride basic prescription
Format: biochemical, human
Settings: metal salt used instead of zinc chloride in combination with the polymer
Source text: The following specimens were used: • FXII-deficient specimens (specimens derived from FXII-deficient patients, N=3).
The prescription was the same as that in the test 1 except that copper sulfate pentahydrate in the first reagent (R1) was changed to zinc chloride.
In the control, LIPIDURE (R) was not added.
Test reagents 5-1 to 5-3: zinc chloride in R1 of the basic prescription was changed to the metal salt compound shown in Table 5, and LIPIDURE (R)-BL205 was further added. As the control, the test reagent 4-1 was used.
R1 and R2 were prepared by the same procedure as in the test 1, the coagulation time (APTT) was measured, and the variation rate (%) of APTT with the test reagent with respect to the control was determined.

O.O.O.O.[Cl][In]([Cl])[Cl] [indium (III) chloride tetrahydrate]
coagulation time of FXII-deficient specimens: further shortened

O.O.O.O.[Cl][Mn][Cl] [manganese (II) chloride tetrahydrate]
coagulation time of FXII-deficient specimens: further shortened
